Measured values reported in patent US10640536B2, “Polymyxins, compositions, methods of making and methods of use” (XELLIA PHARMACEUTICALS APS, priority 2013, dated 2020).
Converted amounts (≈) assume the structure as drawn. Where two headings read alike, the source gives them in different places.

Assays:
Format in all cases: cell-based
[1] = test system: Acinetobacter baumannii colistin-sensitive
Procedure: (§1) The deca sulfomethylated polymyxins were tested for antibacterial activity by determining the minimal inhibitory concentration (MIC) by use of the broth dilution method according to EUCAST. […] indicator organism were used e.g. Acinetobacter baumannii colistin-sensitive, Klebsiella pneumonia #3010, Pseudomonas aeruginosa ATCC27853, Escherichia coli ATCC25922 and Escherichia coli DSA443. The tests were performed at, Statens Serum Institut, Copenhagen, Denmark department for Microbiology and Infection Control.
(§2) The concentration range used was 0.125-128 μg/mL. Gentamicin was included as a positive quality control. Preparation of Gentamicin: 1000 μg/mL stock solution: 0.125 ml of a 40 mg/mL solution of Hexamicin+4.875 mL sterile water. 128 μg/mL: 0.640 mL of “1000 μg/mL stock solution”+4.36 mL Müeller-Hinton broth (MHB).
(§3) Preparation of compounds disclosed herein: 5 mg/ml stock solution: one vial of 5 mg was added 1.0 mL sterile water. 512 μg/mL solution: 0.205 mL of “5 mg/mL stock solution”+1.795 mL MHB
(§4) Preparation of inoculum: Fresh overnight colonies from 5% horse blood agar plates were suspended to a turbidity of 0.5 McFarland and further diluted in Müeller-Hinton broth to 1×10^6 CFU/ml. A total of 50 μL diluted bacterial suspension (Müeller Hinton BBL II-broth, SSI) was added to wells containing 50 μL of two fold compounds described herein or gentamicin dilutions. All compounds were tested in triplicate. The plates were incubated at 35° C., 16-20 h.

[2] = test system: Escherichia coli ATCC25922
Procedure: as §1, §2, §3, §4

[3] = test system: Klebsiella pneumonia #3010
Procedure: as §1, §2, §3, §4

[4] = test system: Pseudomonas aeruginosa ATCC27853
Procedure: as §1, §2, §3, §4

Escherichia coli DSA443 = test: MIC by broth dilution method according to EUCAST; details: Table 3, 35° C., 16-20 h
Procedure: as §1, §2, §3
as §4, with “All compounds were tested in triplicate. The plates were incubated at 35° C., 16-20 h.” left out

[5] = Table 3, broth dilution, 35° C., 16-20 h

Row | Compound | MIC A. baumannii ColistinS ([1]; colistin-sensitive) [µg/mL] | MIC E. coli ATCC 25922 ([2]; ATCC25922) [µg/mL] | MIC K. pneumonia #3010 [3] [µg/mL] | MIC P. aeruginosa ATCC 27853 ([4]; ATCC27853) [µg/mL] | also measured
1 | CC[C@H](C)CCCCC(=O)N[C@@H](CCN(CS(=O)(=O)O)CS(=O)(=O)O)C(=O)N[C@H](C(=O)N[C@@H](CCN(CS(=O)(=O)O)CS(=O)(=O)O)C(=O)N[C@H]1CCNC(=O)[C@H]([C@@H](C)O)NC(=O)[C@H](CCN(CS(=O)(=O)O)CS(=O)(=O)O)NC(=O)[C@H](CCN(CS(=O)(=O)O)CS(=O)(=O)O)NC(=O)[C@H](CC(C)C)NC(=O)[C@@H](CC(C)C)NC(=O)[C@H](CCN(CS(=O)(=O)O)CS(=O)(=O)O)NC1=O)[C@@H](C)O [Example 1, Penta (Nγ-Bis-Sulfomethyl) DAB1,3,5,8,9 Polymyxin E1] | 4 (≈ 1.9 µM) | 8 (≈ 3.79 µM) | 16 (≈ 7.58 µM) | 8 (≈ 3.79 µM) | 
2 | CC(C)CCCCC(=O)N[C@@H](CCN(CS(=O)(=O)O)CS(=O)(=O)O)C(=O)N[C@H](C(=O)N[C@@H](CCN(CS(=O)(=O)O)CS(=O)(=O)O)C(=O)N[C@H]1CCNC(=O)[C@H]([C@@H](C)O)NC(=O)[C@H](CCN(CS(=O)(=O)O)CS(=O)(=O)O)NC(=O)[C@H](CCN(CS(=O)(=O)O)CS(=O)(=O)O)NC(=O)[C@H](CC(C)C)NC(=O)[C@@H](CC(C)C)NC(=O)[C@H](CCN(CS(=O)(=O)O)CS(=O)(=O)O)NC1=O)[C@@H](C)O [Example 2, Penta (Nγ-Bis-Sulfomethyl) DAB1,3,5,8,9 Polymyxin E2] | 4 (≈ 1.91 µM) | 8 (≈ 3.82 µM) | 16 (≈ 7.63 µM) | 8 (≈ 3.82 µM) | 
3 | CC[C@H](C)CCCCC(=O)N[C@@H](CCN(CS(=O)(=O)O)CS(=O)(=O)O)C(=O)N[C@H](C(=O)N[C@@H](CCN(CS(=O)(=O)O)CS(=O)(=O)O)C(=O)N[C@H]1CCNC(=O)[C@H]([C@@H](C)O)NC(=O)[C@H](CCN(CS(=O)(=O)O)CS(=O)(=O)O)NC(=O)[C@H](CCN(CS(=O)(=O)O)CS(=O)(=O)O)NC(=O)[C@H]([C@@H](C)CC)NC(=O)[C@@H](CC(C)C)NC(=O)[C@H](CCN(CS(=O)(=O)O)CS(=O)(=O)O)NC1=O)[C@@H](C)O [Example 3, Penta (Nγ-Bis-Sulfomethyl) DAB1,3,5,8,9 Polymyxin E1-i] | 4 (≈ 1.9 µM) | 8 (≈ 3.79 µM) | 16 (≈ 7.58 µM) | 8 (≈ 3.79 µM) | 
4 | CC[C@H](C)CCCCC(=O)N[C@@H](CCN(CS(=O)(=O)O)CS(=O)(=O)O)C(=O)N[C@H](C(=O)N[C@@H](CCN)C(=O)N[C@H]1CCNC(=O)[C@H]([C@@H](C)O)NC(=O)[C@H](CCN(CS(=O)(=O)O)CS(=O)(=O)O)NC(=O)[C@H](CCN)NC(=O)[C@H](CC(C)C)NC(=O)[C@@H](CC(C)C)NC(=O)[C@H](CCN(CS(=O)(=O)O)CS(=O)(=O)O)NC1=O)[C@@H](C)O [PE1-(SM)6^1,5, 9, Tri (Nγ-Bis-Sulfomethyl) DAB1,5,9 Polymyxin E1] |  | 8 (≈ 4.61 µM) |  | 8 (≈ 4.61 µM) | 
5 | CC[C@H](C)CCCCC(=O)N[C@@H](CCN(CS(=O)(=O)O)CS(=O)(=O)O)C(=O)N[C@H](C(=O)N[C@@H](CCN)C(=O)N[C@H]1CCNC(=O)[C@H]([C@@H](C)O)NC(=O)[C@H](CCN(CS(=O)(=O)O)CS(=O)(=O)O)NC(=O)[C@H](CCN(CS(=O)(=O)O)CS(=O)(=O)O)NC(=O)[C@H](CC(C)C)NC(=O)[C@@H](CC(C)C)NC(=O)[C@H](CCN(CS(=O)(=O)O)CS(=O)(=O)O)NC1=O)[C@@H](C)O [PE1-(SM)8^1,5,8, 9, Tetra (Nγ-Bis-Sulfomethyl) DAB1,5,8,9 Polymyxin E1] |  | 8 (≈ 4.16 µM) |  | 8 (≈ 4.16 µM) | 
6 | Gentamicin [reference compound] |  |  |  |  | MIC E. coli DSA 443 (Escherichia coli DSA443): >32 µg/mL; MIC A. baumannii ColistinS [1, 5]: >32 µg/mL; MIC E. coli ATCC 25922 [2, 5]: 1 µg/mL; MIC of positive control against quality control limit ([2]; limit 0.25-1 μg/mL for E. coli ATCC 25922): within the limit; MIC K. pneumonia #3010 [3, 5]: 0.125 µg/mL; MIC P. aeruginosa ATCC 27853 [4, 5]: 1 µg/mL; MIC of positive control against quality control limit ([4]; limit 0.5-2 μg/mL for P. aeruginosa ATCC27853): within the limit
